This test has as its system NIH3T3. In words: Cytotoxicity against murine 3T3 cells by MTT assay. It is filed as cell-based. The conditions noted are these: Mus musculus. For orientation: Tetrazolium dyes change colour on reduction, which living cells bring about.

Structures are written as SMILES. A value given as a limit tells only on which side of the number the result lay.

Broadly, the IC50 is the concentration at which inhibition is half-maximal. A high value points to a need for much substance. For the compound `O=C1OC[C@H]2[C@@H]1CO[C@@H]2c1ccc2c(c1)OCO2`, the IC50 is more than 20 µM. To `c1cc2c(cc1[C@H]1OC[C@H]3[C@@H]1CO[C@H]3c1ccc3c(c1)OCO3)OCO2` [ASARININ] belongs 0.2 µM; to `O=C(O)[C@H]1CO[C@@H](c2ccc3c(c2)OCO3)[C@H]1CO`, 3 µM; to `O=C1OC[C@H]2[C@@H]1CO[C@H]2c1ccc2c(c1)OCO2`, more than 20 µM.

The record behind these values is ChEMBL document CHEMBL1139208, “An efficient and stereoselective dearylation of asarinin and sesamin tetrahydrofurofuran lignans to acuminatolide by methyltrioxorhenium/H(2)O(2) and UHP systems” (J Nat Prod, 2007).
